Experimental data published in the NIST ThermoML archive (doi:10.1016/j.jct.2014.05.019).

How the values were obtained:
[1] = cn = amount concentration of the nth substance listed, in mol/dm3; settings: 100 kPa, Liquid, Alternating current cell with electrodes, c1 = 0.1
[2] = 101.33 kPa, Liquid; for viscosity: Falling or rolling sphere viscometry; for mass density: Vibrating tube method
[3] = refractive index (Na D-line) (dimensionless); settings: 101.33 kPa, Liquid, Standard Abbe refractometry

[Cl-].[K+] [potassium chloride] + O
[1]
Settings | electrical conductivity [S/m]
288.15 K | 1.05
293.15 K | 1.16
295.15 K | 1.21
297.15 K | 1.26
298.15 K | 1.29
299.15 K | 1.31
301.15 K | 1.36
303.15 K | 1.41
308.15 K | 1.54
313.15 K | 1.67
318.15 K | 1.8
323.15 K | 1.91

O [water]
Settings | mass density, [2] [kg/m3] | refractive index, [3] | viscosity, [2] [mPa·s]
298.15 K | – | 1.33247 | –
303.15 K | – | 1.33188 | 0.798
308.15 K | – | 1.33124 | 0.719
313.15 K | 992.3 | 1.33053 | 0.654
318.15 K | 990.3 | 1.32974 | 0.595
323.15 K | 988.2 | 1.3289 | 0.546
328.15 K | 985.9 | 1.32799 | 0.506
333.15 K | 983.4 | 1.32704 | 0.466
338.15 K | 980.8 | 1.32605 | 0.435
343.15 K | 978 | 1.32503 | 0.408
